Counter-ions that a name gives are not always drawn. Like-named read-outs stand apart in the source and are kept apart here.
Tests used:
[1] = system: Cryptosporidium parvum; test: qRT-PCR assay of the growth of C. parvum in vitro in HCT-8 host cells (primary and secondary screening, EC50); assay type: cell-based; settings: Cryptosporidium parvum, HCT-8; for inhibition at 3.3 µM: secondary screening at 3.3 uM, read-out: % Inhibition (3.3 uM)
[2] = in vitro
[3] = system: HCT-8 host cells (Hs18S)
[4] = primary screening at 10 uM, read-out: Inhibition (%)
[5] = primary screening at 10 uM, treated vs control

Row | Structure (SMILES) | inhibition at 10 µM [1, 4] [%] | cytotoxicity at 41 h, 10 µM ([2]; human) [%] | Hs18S ΔCT ([3]; human, 41 h, 10 μM) | Hs18S ΔCT [3, 5] | further results
1 | CC(C)=CCCC1(C)C=Cc2c(O)c3c(c(CC=C(C)C)c2O1)OC12C(=CCCC1C(C)(C)O[C@@]2(C/C=C(\C)C(=O)O)C(=O)O)C3=O (stereo partly shown) [GARCINOLIC ACID] | -51.3 | 22 | 0.36 |  | 
2 | CC(=O)Oc1c(C)c(C)c2c(c1C)CCC(C)(CCCC(C)CCCC(C)CCCC(C)C)O2 (stereo not drawn) [alpha-TOCHOPHERYL ACETATE] | -13.6 | -15.8 | -0.21 |  | 
3 | CC[C@H](/C=C/[C@@H](C)[C@H]1CC[C@H]2[C@@H]3CC=C4C[C@@H](O)CC[C@]4(C)[C@H]3CC[C@]12C)C(C)C [STIGMASTEROL] | -18 |  |  | 0.96 | cytotoxicity at 10 µM [2]: 48.6%
4 | CC(=O)OCC(=O)[C@H]1CC[C@H]2[C@@H]3CC=C4C[C@@H](O)CC[C@]4(C)[C@H]3CC[C@]12C [21-ACETOXYPREGNENOLONE] | -41.2 | 6.5 | 0.10 |  | 
5 | Nc1ncnc2nc[nH]c12 [ADENINE] | -9.27 | -5.9 |  | -0.08 | 
6 | c1coc(CNc2ncnc3[nH]cnc23)c1 [KINETIN] | -42.7 | 31 | 0.54 |  | 
7 | C[C@H]1O[C@H](O[C@H]2[C@H](O)[C@@H](O)[C@@H](O[C@H]3[C@H](O)[C@@H](O)C(O)O[C@@H]3CO)O[C@@H]2CO)[C@H](O)[C@@H](O)[C@@H]1N[C@H]1C=C(CO)[C@@H](O)[C@H](O)[C@H]1O (stereo partly shown) [ACARBOSE] | 37.8 | 23.6 | 0.39 |  | 
8 | CC[C@@]1(O)C(=O)OCc2c1cc1n(c2=O)Cc2cc3ccccc3nc2-1 [CAMPTOTHECIN] | 76 |  |  | 1.35 | inhibition at 3.3 µM [1]: 59%; cytotoxicity at 10 µM [2]: 60.8%
9 | COC(=O)/C(=C1/OC(=O)C(c2ccccc2)=C1O)c1ccccc1 [VULPINIC ACID] | -77.9 | 36 | 0.64 |  | 
10 | CC(C)/C(O)=C1/C(=O)O[C@@H](c2ccoc2)[C@]2(C)C(O)[C@@H](O)[C@@]34OC5(C)OC67CC(C)(C(O)[C@]6(O)[C@@H](O)[C@]3(O5)C12)[C@H](CC(=O)O)[C@]74C (stereo partly shown) [HYDROLYSIS PRODUCT OF BUSSEIN] | 8.3 | -60.9 | -0.69 |  | 
11 | C=C[C@@]1(C)CC(=O)[C@]2(O)[C@@]3(C)[C@@H](O)CCC(C)(C)[C@@H]3[C@H](O)[C@H](OC(C)=O)[C@@]2(C)O1 [COLFORSIN] | 24.8 | 9.4 | 0.14 |  | 
12 | COC(=O)CC[C@@H](C)[C@H]1CC[C@H]2[C@@H]3CC[C@@H]4C[C@H](O)CC[C@]4(C)[C@H]3C[C@H](O)[C@]12C [METHYL DEOXYCHOLATE] | 23.4 | 36.7 | 0.66 |  | 
13 | CC1(C)CC2C1CCC1(C)OC2(C)CCC1O (stereo not shown) [3,7-EPOXYCARYOPHYLLAN-6-OL] | 12.9 | 7.2 | 0.11 |  | 
14 | CC(=O)Oc1ccc(/C=C/c2cc(OC(C)=O)cc(OC(C)=O)c2)cc1 [TRIACETYLRESVERATROL] | -64.8 |  |  | 0.19 | cytotoxicity at 10 µM [2]: 12.4%
15 | C=CCc1ccc2c(c1)OCO2 [SAFROLE] | 76.2 |  |  | -0.44 | inhibition at 3.3 µM [1]: 8%; cytotoxicity at 10 µM [2]: -35.3%
16 | C=CC1=C(C)c2cc3[nH]c(cc4nc(cc5[nH]c(cc1n2)c(C)c5CCC(=O)O)C(CCC(=O)O)=C4C)c(C)c3C=C [PROTOPORPHYRIN IX] | -20.6 | -0.1 | 0.00 |  | 
17 | COc1cc(C)c(C(=O)Oc2cc(C)c(C(=O)O)c(O)c2C)c(OC)c1C [DIFFRACTAIC ACID] | -3.8 | 46.7 | 0.91 |  | 
18 | COc1ccc(-c2coc3cc(O)ccc3c2=O)c(O)c1O [KOPARIN] | 6.05 | -1.6 | -0.02 |  | 
19 | c1cncc(C2=NCCC2)c1 [MYOSMINE] | -17.6 |  |  | 0.07 | cytotoxicity at 10 µM [2]: 4.5%
20 | CC(C)[C@@H](C)/C=C/[C@@H](C)[C@H]1CC[C@H]2C3=CC=C4C[C@@H](O)CC[C@]4(C)[C@H]3CC[C@]12C [ERGOSTEROL] | -29.6 | -1.9 |  | -0.03 | 
21 | O=c1cccc2n1C[C@@H]1CNC[C@H]2C1 [CYTISINE] |  |  |  |  | inhibition at 10 µM [1]: 16%; cytotoxicity at 10 µM [2]: -20%; Hs18S ΔCT [3]: -0.26
22 | COC(=O)[C@@H]1[C@H]2C[C@H]3c4[nH]c5ccccc5c4CCN3C[C@@H]2CC[C@@H]1O [YOHIMBINE HYDROCHLORIDE] | 5.49 | -36.5 | -0.45 |  | 
23 | S=C=NCc1ccccc1 [BENZYL ISOTHIOCYANATE] | 91.8 | 32.8 |  | 0.57 | inhibition at 3.3 µM [1]: 14%
24 | Cc1cc(O)c2c(c1)C(=O)c1cc(O)cc(O)c1C2=O [EMODIN] | -18 | -3 | -0.04 |  | 

Row | Structure (SMILES) | inhibition at 10 µM [1, 4] [%] | cytotoxicity at 41 h, 10 µM ([2]; human) [%] | Hs18S ΔCT ([3]; human, 41 h, 10 μM) | Hs18S ΔCT [3, 5] | further results
25 | C=C(C)[C@@H]1CC=C(CO)CC1 [PERILLYL ALCOHOL] | 29.5 | -27.4 | -0.35 |  | 
26 | COc1cc2c(cc1OC)[C@H](C)NCC2 [SALSOLIDINE] | 47.1 |  |  | 0.32 | cytotoxicity at 41 h, 10 µM [2]: 20%
27 | CC1(C)CC[C@]2(C)CC[C@]3(C)C(=CC[C@@H]4[C@@]5(C)CC[C@H](O)C(C)(C)[C@@H]5CC[C@]43C)[C@@H]2C1 [beta-AMYRIN] | -38.2 |  |  | -0.12 | cytotoxicity at 10 µM [2]: -8.3%
28 | CC(C)=CCC[C@@H](C)[C@H]1CC[C@@]2(C)C3=C(CC[C@]12C)[C@@]1(C)CC[C@H](O)C(C)(C)[C@@H]1CC3 [LANOSTEROL] | -22.5 | -18.1 | -0.24 |  | 
29 | O=C(O)[C@@H](O)[C@](O)(Cc1ccc(O)cc1)C(=O)O [PISCIDIC ACID] | -5.12 |  |  | -0.03 | cytotoxicity at 10 µM [2]: -1.7%
30 | C[C@@H]1CC[C@H]2[C@@H](C)C(=O)O[C@@H]3O[C@@]4(C)CC[C@@H]1[C@]32OO4 [ARTEMISININ] | 16.7 | 0 | 0.00 |  | 
31 | O=C1C[C@@H](c2ccc(O)cc2)Oc2cc(O)cc(O)c21 [NARINGENIN] | 47.6 | -17.3 |  | -0.23 | 
32 | COc1ccc(C(=O)O)c(O)c1OC [2-HYDROXY-3,4-DIMETHOXYBENZOIC ACID] | 7.69 | 10.5 | 0.16 |  | 
33 | CC1=C(/C=C/C(C)=C/C=C/C(C)=C/C=C/C=C(C)/C=C/C=C(C)/C=C/C2=C(C)C(=O)[C@@H](O)CC2(C)C)C(C)(C)C[C@H](O)C1=O [ASTAXANTHIN] | 45.1 | -34.8 | -0.43 |  | 
34 | C[C@]1(OC(=O)/C=C/c2ccccc2)C[C@@H](O)[C@]2(O)C=CO[C@@H](O[C@@H]3O[C@H](CO)[C@@H](O)[C@H](O)[C@H]3O)[C@@H]21 [HARPAGOSIDE] | -42.1 | 21.8 | 0.36 |  | 
35 | C=CC(C1=CC(=O)C=CC1=O)c1ccccc1 (stereo not shown) [DALBERGIONE] | 32.8 | 20.4 | 0.33 |  | 
36 | CC(C)c1ccc2c(c1)CC[C@H]1[C@](C)(C(N)=O)CCC[C@]21C [DEHYDROABIETAMIDE] | 8.3 | -0.7 | -0.01 |  | 
37 | CC(C)(O)[C@@H]1[C@H]2OC(=O)[C@@H]1[C@]1(O)C[C@H]3O[C@]34C(=O)O[C@H]2[C@]14C [PICROTIN] | -1.94 |  |  | -0.20 | cytotoxicity at 10 µM [2]: -14.8%
38 | C=C(C)[C@H]1Cc2c(ccc3c2O[C@@H]2COc4cc(OC)c(OC)cc4[C@@H]2C3=O)O1 [ROTENONE] | 74.7 |  |  | 1.24 | inhibition at 3.3 µM [1]: 76%; cytotoxicity at 10 µM [2]: 57.8%
39 | COc1cc(O)ccc1C(C)=O [ISOPEONOL] | -12.8 | 2.3 | 0.03 |  | 
40 | CC(C)=CCc1c2c(c3occ(-c4ccc(O)cc4)c(=O)c3c1O)C=CC(C)(C)O2 [OSAJIN] | -1.77 | -108 | -1.06 |  | 
41 | C[C@@H]1CC[C@@]2(NC1)O[C@H]1C[C@H]3[C@@H]4CC=C5C[C@@H](O)CC[C@]5(C)[C@H]4CC[C@]3(C)[C@H]1[C@@H]2C [SOLASODINE] | -28.3 |  |  | 0.07 | cytotoxicity at 10 µM [2]: 4.6%
42 | CN1[C@@H]2CC[C@H]1C[C@@H](OC(=O)C(CO)c1ccccc1)C2 (stereo partly shown) [ATROPINE SULFATE] | 3.7 |  |  | 0.26 | cytotoxicity at 10 µM [2]: 16.3%
43 | O=C(O)/C=C/c1ccc(O)c(O)c1 [CAFFEIC ACID] | 18.9 | -26.2 | -0.34 |  | 
44 | COC(=O)C[C@H]1C(C)(C)[C@@H](OC(C)=O)[C@@H]2CC3=C4CC(=O)O[C@@H](c5ccoc5)[C@]4(C)CC[C@@H]3[C@@]1(C)C2=O [FISSINOLIDE] | -39.8 | -75.3 | -0.81 |  | 
45 | C=C[C@H]1C[N@@]2CC[C@H]1C[C@H]2[C@H](O)c1ccnc2ccc(OC)cc12 [QUININE SULFATE] | -15.4 | -8.7 | -0.12 |  | 
46 | N[C@@H](Cc1cc(I)c(Oc2cc(I)c(O)c(I)c2)c(I)c1)C(=O)O [LEVOTHYROXINE] | -12.4 | -2.2 | -0.03 |  | 
47 | CCCCC[C@H](CC(=O)O)C(=O)O [NONIC ACID] | -17.1 | 3.9 | 0.06 |  | 

Reference: PMC6736568, “Discovery of Novel Anti-cryptosporidial Activities From Natural Products by in vitro High-Throughput Phenotypic Screening” (Frontiers in Microbiology, 2019)
